# Like-named read-outs stand apart in the source and are kept apart here.
# Legend:
# [1] = test system: KMST-6 non-cancerous fibroblast cells; test: MTT reduction assay; type: cell-based, human
# Description: (§3) Viable cells were seeded at a density of 5 x10^4 cells/ml (100 μl/well) in 96-well plates and incubated in a humidified atmosphere of 5% CO2 and 95% air at 37°C for 24 h to form a cell monolayer. After 24 h, the cell culture medium was aspirated and 100 μl fresh medium containing varying concentrations of test compounds in log10 doses were added to the cells and the 96-well plates incubated for a further 24 h [16, 17].
# (§4) After the 24 h treatments, 20 μl of 5 mg/ml MTT (prepared in PBS) was added to each well and the 96-well plates incubated for 3 h at 37°C in a 5% CO2 atmosphere. The supernatant was aspirated and 150 μl of isopropanol added to each well after which the plate was gently shaken for 15 min to solubilize the formazan crystals and the absorbance was measured at 560 nm using a Glomax Multi Detection System (Promega, USA). The percentage inhibition of cell proliferation was calculated using the formula below and IC50 values computed by non-linear regression analysis of log dose-response sigmoidal curves using GraphPad Prism version 6.05 for Windows (GraphPad Software, La Jolla California USA, www.graphpad.com). %Inhibition of Proliferation=100‐TestOD/UntreatedODx100%
# [2] = set-up: method as in doi:10.1135/cccc20041506; details: at a neuro-active concentration; cited from earlier work
# [3] = test system: MCF-7 cells; test: Cell cycle analysis, PI flow cytometry; type: cell-based, human; details: MCF-7, IC50 concentration
# Description: (§1) Cells were seeded at a density of 2 × 10^5 cells/well in 6-well plates and incubated for 24 h at 37 °C in a CO2 incubator to form a monolayer. The cells were treated for 12 and 24 h with the isolated compounds at concentrations equivalent to the IC50 concentrations (as determined by the MTT reduction assay). After treatment, the cells were detached with trypsin, washed in PBS and the cell pellet was resuspended in 1 ml of 1% paraformaldehyde and placed on ice for 30 min. Ethanol (70%, v/v) was slowly added to the cells while the sample was vortexed to reduce cell clumping. The cells were stored at − 20 °C for 48 h, after which the cells were recovered by centrifugation at 4000 rpm for 10 min. The cell pellets were washed twice in PBS and then resuspended in 1 ml PBS containing 100 μg/ml RNase and 40 μg/ml propidium iodide. Cell cycle phase distribution was determined using a FACS Calibur Flow Cytometer (BD Biosciences Franklin Lakes, NJ, USA). The DNA content of 50,000 events was determined by ModFit software (Verity Software House, Topsham, ME), which provided histograms to evaluate the cell cycle distribution.
# [4] = test system: HT-29 cells; test: Cell cycle analysis, PI flow cytometry; type: cell-based, human; details: HT-29, IC50 concentration, 12 and 24 h
# Description: as §1
# [5] = test system: HeLa cells; test: MTT reduction assay; type: cell-based, human; details: for IC50: HeLa; for Selectivity index: HeLa versus non-cancerous KMST-6
# Description: as §3, §4
# [6] = test system: MCF-7 cells; test: BrdU incorporation assay (chemiluminescent ELISA); type: cell-based, human; details: MCF-7, IC50 concentration
# Description: (§2) Cells were seeded at a density of 5 × 10^4 cells/well in black-walled 96-well microtiter plates and incubated for 24 h at 37 °C in a CO2 incubator to form a monolayer. The cells were treated for 12, 24 and 48 h with the isolated compounds at concentrations equivalent to the IC50 concentrations (as determined by the MTT reduction assay). Cell proliferation was determined using the ELISA-BrdU (5-bromo-2′-deoxyuridine) chemiluminescence assay kit (Roche, Germany), according to the manufacturer’s instruction, and expressed as the percentage DNA synthesis relative to the untreated control.
# [7] = test system: HeLa cells; test: BrdU incorporation assay (chemiluminescent ELISA); type: cell-based, human; details: IC50 concentration
# Description: as §2
# [8] = test system: HT-29 cells; test: BrdU incorporation assay (chemiluminescent ELISA); type: cell-based, human; details: HT-29, IC50 concentration
# Description: as §2
# [9] = test system: MCF-7 cells; test: MTT reduction assay; type: cell-based, human; details: for Selectivity index: MCF-7 versus non-cancerous KMST-6
# Description: as §3, §4
# [10] = test system: HT-29 cells; test: MTT reduction assay; type: cell-based, human; details: for Selectivity index: HT-29 versus non-cancerous KMST-6
# Description: as §3, §4
# [11] = test system: HeLa cells; test: Cell cycle analysis, PI flow cytometry; type: cell-based, human; details: IC50 concentration, 24 h
# Description: as §1
# [12] = Homo sapiens, Fibroblast, KMST-6, MTT, 24 h treatment, read-out: IC50
# [13] = Homo sapiens, MTT, 24 h treatment, read-out: IC50
# [14] = Homo sapiens, MCF7, MCF-7, MTT, 24 h treatment, read-out: IC50
# [15] = Homo sapiens, HT-29, MTT, 24 h treatment, read-out: IC50
SMILES,Cell population in G2/M-phase ([3]; 12 h),Cell population in G2/M-phase ([3]; 24 h),Cell population in G2/M phase [4],Change in DNA synthesis between 12 and 24 h [8],Selectivity index [9],Selectivity index [10],Selectivity index [5],"IC50 [1, 12]","IC50 [5, 13]","IC50 [9, 14]","IC50 [10, 15]",other results
"CC(=O)[C@H]1CC[C@H]2[C@@H]3CC[C@H]4C[C@H](N)CC[C@]4(C)[C@H]3CC[C@]12C [Compound 2, funtumine]",significant increase,significant increase,significant increase,significant reduction,1.85,3.31,,,,,,"IC50 ([1]; Homo sapiens, Fibroblast, 24 h): 85.5 µM; Cytotoxicity [2]: no cytotoxicity; IC50 ([5]; Homo sapiens, 24 h): 46.2 µM; Change in DNA synthesis between 24 and 48 h [6]: significantly (P < 0.05) reduced; Change in DNA synthesis between 12 and 24 h [7]: significant reductions; Change in DNA synthesis between 24 and 48 h [8]: significant reduction; IC50 ([9]; Homo sapiens, MCF7, 24 h): 52.7 µM; Selectivity index ([10]; listed as C2): 3.82; IC50 ([10]; Homo sapiens, HT-29, 24 h): 22.4 µM"
N.N.[Cl][Pt][Cl] [Cisplatin],,,,,0.58,0.87,2.11,,,,,"IC50 ([1]; KMST-6, MTT, 24 h treatment, read-out: IC50): 6.14 µM; IC50 ([5]; MTT, 24 h treatment, read-out: IC50): 2.91 µM; IC50 ([9]; MCF-7, MTT, 24 h treatment, read-out: IC50): 10.6 µM; IC50 ([10]; HT-29, MTT, 24 h treatment, read-out: IC50): 7.07 µM"
"CC(=O)[C@H]1CC[C@H]2[C@@H]3CC=C4C[C@H](N)CC[C@]4(C)[C@H]3CC[C@]12C [Compound 1, holamine]",significant increase,not significant,significant increase,significant reduction,,3.82,2.00,103 µM,51.4 µM,42.8 µM,31.1 µM,Cell population in G2/M-phase [11]: significant decrease; Change in DNA synthesis between 12 and 24 h [6]: significant reduction; Change in DNA synthesis between 24 and 48 h [7]: significant reduction; Selectivity index ([10]; listed as C1): 3.31
"COc1cccc2c1C(=O)c1c(O)c3c(c(O)c1C2=O)C[C@@](O)(C(=O)CO)C[C@@H]3O[C@H]1C[C@H](N)[C@H](O)[C@H](C)O1 [Dox, Doxorubicin]",,,,,0.57,0.27,1.31,4.68 µM,3.57 µM,8.2 µM,17.4 µM,
